How the values were obtained:
Type in all cases: cell-based
cortical neurons = assay: NMDA/DHPG neuronal toxicity in cortical neurons (EthD-1/Calcein AM live/dead)
Text: In FIGS. 8a and b, cortical neurons were co-transfected with green fluorescent protein (GFP) and vector DNA, myc-mGluR1α or myc-mGluR1α936Δ, respectively. […] Twelve hours later, neurons were stained with EthD-1 to label dead cells. Arrowheads in FIG. 8a indicate EthD-1 positive GFP-expressing neurons. * p<0.05. FIGS. 8c and d are representative photos and bar graphs showing differential roles of endogenous mGluR1 in neuronal toxicity before and after NMDA-induced truncation. Cortical neurons were treated as indicated and were stained with EthD-1 (for dead cells) and calcein AM (for live cells) 24 hours later. * p<0.001.
We then tested whether calpain-mediated truncation of endogenous mGluR1α also alters its roles in excitotoxicity. We used NMDA to elicit mGluR1α truncation and evaluated the roles of mGluR1 in neuronal toxicity by applying DHPG before and after truncation. Fourteen DIV cortical neurons cultured on 18×18 mm coverslips were divided into 6 groups, which received the following treatments, respectively: 1) “Control”: vehicle; 2) “NMDA”: 100 μM NMDA for 1 hour; 3) “DHPG before NMDA”: DHPG, 100 μM, for 1 hour, followed by 100 μM NMDA for 1 hour; 4) “DHPG after NMDA”: NMDA, 100 μM, for 1 hour, followed by 100 μM DHPG for 1 hour; 5) “DHPG+LY before NMDA”: 100 μM DHPG was co-applied with 100 μM LY367385 for 1 hour and followed by 100 μM NMDA for 1 hour; 6) “DHPG+LY after NMDA”: NMDA 100 μM for 1 hour, followed by 100 μM DHPG co-applied with 100 μM LY367385. Twenty-four hours after treatment, all neurons were stained for 20 minutes with 0.5 μM EthD-1 to label dead cells and 2 μM Calcein AM to label live cells. After three washes with culture medium, coverslips were mounted and one microscopy photo was immediately taken from the center area of each coverslip. EthD-1 and Calcein AM positive cells on each photo were then counted. The percentage of cell death was calculated as the number of EthD-1 positive cell/(number of EthD-1 positive cell+number of Calcein AM positive cell)*100%.

myc-mGluR1α936Δ = myc-mGluR1α936Δ (Rattus norvegicus, UniProt P23385); assay: DHPG-induced whole-cell currents in HEK293 cells transfected with myc-mGluR1α936Δ; conditions: 100 μM DHPG
Chain of myc-mGluR1α936Δ (P23385 19-936 limits assumed, stated change not applied): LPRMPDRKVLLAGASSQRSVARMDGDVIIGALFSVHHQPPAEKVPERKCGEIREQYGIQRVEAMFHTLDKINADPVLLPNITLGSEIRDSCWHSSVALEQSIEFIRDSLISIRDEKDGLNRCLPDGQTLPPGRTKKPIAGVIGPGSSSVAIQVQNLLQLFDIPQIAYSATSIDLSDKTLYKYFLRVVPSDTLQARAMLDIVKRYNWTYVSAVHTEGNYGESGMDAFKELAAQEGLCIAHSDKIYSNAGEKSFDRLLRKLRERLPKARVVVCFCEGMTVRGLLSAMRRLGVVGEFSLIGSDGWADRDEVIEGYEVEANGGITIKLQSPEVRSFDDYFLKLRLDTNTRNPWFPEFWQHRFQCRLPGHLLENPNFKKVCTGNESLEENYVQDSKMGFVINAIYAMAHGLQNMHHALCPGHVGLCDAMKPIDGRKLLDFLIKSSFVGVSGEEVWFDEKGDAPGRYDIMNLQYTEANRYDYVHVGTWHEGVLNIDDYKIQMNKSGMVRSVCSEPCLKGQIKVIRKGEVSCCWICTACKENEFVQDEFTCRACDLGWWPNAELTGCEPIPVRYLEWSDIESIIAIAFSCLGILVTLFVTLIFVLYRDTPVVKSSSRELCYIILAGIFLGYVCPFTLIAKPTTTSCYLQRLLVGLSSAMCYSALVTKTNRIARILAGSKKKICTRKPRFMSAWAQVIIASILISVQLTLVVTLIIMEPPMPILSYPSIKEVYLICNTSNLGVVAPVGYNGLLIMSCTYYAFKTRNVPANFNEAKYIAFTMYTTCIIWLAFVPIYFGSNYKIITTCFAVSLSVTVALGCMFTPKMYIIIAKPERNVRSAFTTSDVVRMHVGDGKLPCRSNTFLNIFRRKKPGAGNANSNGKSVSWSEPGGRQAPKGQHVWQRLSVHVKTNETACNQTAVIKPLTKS
Experimental: (§1) Representative current traces recorded from HEK293 cells transfected with either myc-mGluR1α (left panel) or myc-mGluR1α936Δ (right panel) and GIRK1, GIRK2 (top) or TRPC1 (bottom). DHPG (100 μM in extracellular solution) was applied using a fast perfusion system for the duration indicated by the scale bars. Each trace is the average of 5 continuous sweeps. The bar graphs represent the means±S.E.M. of DHPG-induced current amplitude recorded in cells transfected with myc-mGluR1α or myc-mGluR1α936Δplus GIRK1, GIRK2 (top right) or TRPC1 (bottom right) (n=3-7). In FIG. 6B, cortical neurons were pre-treated with NMDA (50 1μM, 1 h). Two hours after washing NMDA, neurons were treated with the mGluR1 agonist DHPG (50 μM) for 10 min in the absence or presence of LY367385. Total cell lysates were collected and probed with anti-Phospho Akt (Ser473) antibody.
(§2) Because activation of mGluR1α can also stimulate non-selective cation excitatory postsynaptic conductances (EPSCs), we therefore analyzed mGluR1α-dependent currents before and after calpain-mediated truncation. We transfected HEK293 cells with either myc-mGluR1α or myc-mGluR1α936Δ plus GIRK1, GIRK2 or TRPC1.

myc-mGluR1α [1] = biological target: T1, myc-mGluR1α (Rattus norvegicus, UniProt P23385); assay: DHPG-induced whole-cell currents in HEK293 cells transfected with myc-mGluR1α; conditions: 100 μM DHPG
T1 sequence (P23385 19-1199): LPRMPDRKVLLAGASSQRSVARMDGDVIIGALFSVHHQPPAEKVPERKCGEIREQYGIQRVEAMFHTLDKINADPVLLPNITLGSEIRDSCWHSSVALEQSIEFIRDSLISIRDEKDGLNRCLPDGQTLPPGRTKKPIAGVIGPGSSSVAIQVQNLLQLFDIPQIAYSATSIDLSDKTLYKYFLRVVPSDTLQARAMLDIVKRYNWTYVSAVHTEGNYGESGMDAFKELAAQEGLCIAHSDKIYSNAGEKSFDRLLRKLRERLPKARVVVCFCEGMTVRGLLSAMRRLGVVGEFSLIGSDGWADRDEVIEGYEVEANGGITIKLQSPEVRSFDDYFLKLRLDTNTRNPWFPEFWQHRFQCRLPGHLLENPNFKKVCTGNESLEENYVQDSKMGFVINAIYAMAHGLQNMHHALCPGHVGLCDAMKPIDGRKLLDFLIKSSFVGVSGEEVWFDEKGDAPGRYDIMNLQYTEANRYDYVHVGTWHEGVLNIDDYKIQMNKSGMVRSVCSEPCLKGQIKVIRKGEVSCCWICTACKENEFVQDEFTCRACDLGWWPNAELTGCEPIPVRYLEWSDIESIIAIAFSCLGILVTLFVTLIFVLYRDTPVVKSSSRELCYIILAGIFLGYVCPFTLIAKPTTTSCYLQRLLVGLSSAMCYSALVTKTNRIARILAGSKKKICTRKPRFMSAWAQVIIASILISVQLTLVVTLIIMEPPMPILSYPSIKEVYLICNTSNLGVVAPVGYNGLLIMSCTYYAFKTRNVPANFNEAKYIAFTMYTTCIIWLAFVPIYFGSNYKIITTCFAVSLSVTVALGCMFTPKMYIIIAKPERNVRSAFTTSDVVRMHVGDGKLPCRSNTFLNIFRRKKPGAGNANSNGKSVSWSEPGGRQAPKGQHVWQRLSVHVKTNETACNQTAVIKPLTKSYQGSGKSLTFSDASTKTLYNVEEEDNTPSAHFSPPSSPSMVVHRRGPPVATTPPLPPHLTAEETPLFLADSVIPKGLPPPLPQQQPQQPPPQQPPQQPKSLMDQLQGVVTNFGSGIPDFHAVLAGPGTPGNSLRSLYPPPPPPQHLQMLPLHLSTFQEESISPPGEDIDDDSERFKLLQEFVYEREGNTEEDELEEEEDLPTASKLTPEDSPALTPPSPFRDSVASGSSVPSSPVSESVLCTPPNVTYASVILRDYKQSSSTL
Experimental: as §1, §2

Phospho Akt (Ser473) = assay: Akt phosphorylation (Ser473) in cortical neurons (Western blot); conditions: DHPG 50 μM, 10 min
Experimental: as §1, with “antibody. Without pretreatment with NMDA, DHPG increased the levels of Phospho-Akt (* p<0.05), an effect blocked by LY367385.” for “antibody.”
As reported in previous studies, mGluR1 activation can stimulate the PI3K-Akt signaling pathway through the mGluRI-Homer-PIEL-PI3K signaling complex. Since the Homer-binding domain of mGluR1α is located in the extreme C-terminus, which is removed after calpain-mediated truncation, it was interesting to determine whether this signaling mechanism remained functional. We first induced mGluR1α truncation by treating cortical neurons with 50 μM NMDA for 1 hour. Two hours after washing out NMDA, neurons were incubated with the mGluRI agonist DHPG (50 μM) for 10 min. Neurons were then lysed and levels of phosphorylated Akt were determined on Western blots. Consistent with a previous study, in cortical neurons that were not pre-treated with NMDA, DHPG induced an increase in phosphorylated Akt levels (p<0.05, n=4, Student's t-test for Control vs. DHPG), an effect which was blocked by the mGluR1 selective antagonist LY367385 (p<0.05, n=4, for DHPG+LY367385 vs. DHPG) (FIG. 6B). […] Thus, mGluR1α-PI3K-Akt signaling pathway was disrupted by calpain-mediated mGluR1α truncation.

myc-mGluR1α [2] = biological target: T1, myc-mGluR1α; assay: DHPG-induced calcium transients in HEK293 cells transfected with myc-mGluR1α (calcium imaging); conditions: 100 μM DHPG; myc-mGluR1α-transfected HEK293 cells
Text: (§3) In this set of experiments, HEK293 cells were co-transfected with DsRed (red fluorescent protein) and wild-type myc-mGluR1α or truncated myc-mGluR1α936Δ. The mGluRI agonist DHPG was used to induce mGluR1α-mediated calcium transients. In FIG. 5A, photos in the left show the expression of DsRed, labeling transfected cells; photos in the middle illustrate the fluorescent signal from the calcium indicator Oregon green 488 BAPTA-1 AM before and after DHPG application; photos in the right are obtained by subtracting “before DHPG” from “after DHPG”, thus representing DHPG-induced calcium transients.
(§4) The main signaling mechanism activated by mGluR1α consists of PI hydrolysis through G-protein and phospholipase C, which eventually leads to calcium release from internal calcium stores. Therefore we first performed calcium imaging to determine whether mGluR1α remains functional following C-terminal truncation. Wild-type mGluR1 (myc-mGluR1α) or the truncated form (myc-mGluR1α936Δ) was cotransfected with DsRed into HEK293 cells. Forty-eight hours after transfection, cells were loaded with a calcium reporter, Oregon green 488 BAPTA-1 AM (0.63% in extracellular solution).

myc-mGluR1α [3] = assay: as above; conditions: 100 μM DHPG; untransfected cells
Text: as §3, §4

mGluR1α = assay: Glutamate/NMDA-induced C-terminal truncation of mGluR1α in cultured cortical neurons (immunoblot)
Text: Total cell lysates were separated by SDS-PAGE and probed with an antibody against the carboxyl terminus (residue 1142-1160) of mGluR1α. […] Total cell lysates were probed with an anti-myc antibody. […] Total cell lysates were probed with antibodies against mGluR5, G1uR2/3 and VGluT1 respectively.
Total cell lysate was collected immediately after treatment and subjected to SDS-PAGE and immunoblotting with an antibody against the carboxyl terminus (residues 1142-1160) of mGluR1α (FIG. 2A). […] Neurons were transfected with a calcium phosphate precipitation method modified for high transfection rate (Jian et al., Gene Ther 11:1301-1311, 2004).
Cortical neurons were treated with NMDA at the indicated concentrations for 1 h or treated with NMDA (10 μM) for the indicated times. Total cell lysates were separated by SDS-PAGE and probed with antibodies against mGluR1α1142-1160, Results were normalized over control values and are means±s.e.m. of 4 experiments.
To determine whether activation of mGluR1α itself was required for the truncation, two distinct mGluR1α antagonists were applied.
To further characterize NMDA-induced mGluR1α truncation, the concentration- and time-dependencies of the effects of NMDA were studied. Cortical neurons were first incubated with different concentrations of NMDA for a fixed period of time (1 hour) (FIG. 3F). […] In a following experiment, cortical neurons were incubated with 10 μM NMDA for different durations ranging from 1 to 60 min (FIG. 3G).
Cortical neurons were treated with NMDA (10 μM, 1 h). Total cell lysates were separated by SDS-PAGE and probed with antibodies against spectrin and mGluR1α1142-1160, respectively. Only the degradation bands of spectrin (spectrin DB, at ˜145 KD) are shown. […] In FIG. 4C, purified myc-mGluR1α was digested with μ-calpain at the indicated concentrations (U/ml) for 30 min. The digested material was processed for SDS-PAGE and subjected to silver staining or immunoblots with anti-myc or anti-mGluR1α1142-1160 antibodies. […] The 1st lane was the myc-mGluR1α immunoprecipitated from 293 cells; the 2nd and 3rd lanes were immunoprecipitated myc-mGluR1α digested with indicated concentration of calpain. […] FIG. 4F is the alignment of mGluR1 (902-941) and mGluR5 (889-927) surrounding the calpain cleavage site.
In this set of experiments, we determined which protease(s) mediated NMDA-induced truncation of mGluR1α. […] Cortical neurons were pretreated with a calpain inhibitor, the cell-permeable calpain-inhibitor III, or the caspase inhibitor cpm-VAD-CHO for 2 hours and then incubated in the absence or presence of 100 µM NMDA for 1 hour. […] To further confirm calpain activation by NMDA under our experimental conditions, we determined the levels of the calpain-specific spectrin degradation fragments.

myc-mGluR1α [4] = assay: Targeting of myc-mGluR1α in transfected cortical neurons after NMDA (immunostaining); conditions: NMDA 50 μM, 1 hour; 124 out of 367 neurons
Experimental: In FIG. 7A, cortical neurons were co-transfected with DsRED and myc-mGluR1α. After 48 h, neurons were fixed and stained with anti-myc and anti-DsRED antibodies. Some of the neurons were pre-treated with NMDA (50 μM, 1 h), and recovered for 3 h after washing out NMDA before fixation. Myc-mGluR1α (upper panel) was absent in axons (arrowhead) under control conditions. After pre-treatment with NMDA (lower panel), staining of myc-mGluR1α appeared in the proximal segment of axons. In FIG. 7B, cortical neurons were co-transfected with DsRED and myc-mGluR1α. After 48 h, neurons were fixed and stained with anti-DsRED and anti-mGluR1α1142-1160 antibodies with (lower panel) or without (upper panel) pretreatment with NMDA. Staining for mGluR1α was absent from axons in both conditions. In FIG. 7C, cortical neurons were co-transfected with DsRED and myc-mGluR1α936Δ. After 48 h, neurons were fixed and stained with anti-myc and anti-DsRED antibodies. […]
Previous studies have shown that the C-terminus domain of mGluR1α is crucial for its dendritic localization. […] But in ˜34% of neurons treated with NMDA (124 out of 367 neurons counted), the N-terminal fragment of wild-type mGluR1α could be detected in axons, especially in the proximal segment, whereas immunoreactivity against the C-terminus of mGluR1α was still restricted to dendrites (FIG. 7B).

Row | Structure (SMILES) | cell death (cortical neurons; DHPG 100 μM 1 hour after 100 μM NMDA 1 hour, 24 hours after) [%] | cell death (cortical neurons; DHPG 100 μM 1 hour before 100 μM NMDA 1 hour, 24 hours after) [%] | mean amplitude of DHPG-induced whole-cell current (myc-mGluR1α936Δ; myc-mGluR1α936Δ/GIRK1,2-transfected cells) [pA] | mean amplitude of DHPG-induced whole-cell current (myc-mGluR1α936Δ; myc-mGluR1α936Δ/TRPC1-transfected cells) [pA] | average amplitude of DHPG-induced whole-cell current (myc-mGluR1α [1]; myc-mGluR1α/GIRK1,2-transfected cells) [pA] | mean amplitude of DHPG-induced whole-cell current (myc-mGluR1α [1]; myc-mGluR1α/TRPC1-transfected cells) [pA] | phosphorylated Akt levels (Phospho Akt (Ser473); 2 h after NMDA 50 μM 1 h pre-treatment) | phosphorylated Akt levels (Phospho Akt (Ser473); neurons not pre-treated with NMDA) | calcium transient, max. ΔF/F (myc-mGluR1α [2]) [%] | change in fluorescent calcium signals (myc-mGluR1α [3]) | cell death (cortical neurons; 100 μM NMDA for 1 hour, 24 hours after treatment) [%] | minimum time required to induce truncation (mGluR1α; 10 μM NMDA) [min] | treatment time after which truncation was maximal (mGluR1α; 10 μM NMDA) [min] | EC50 (mGluR1α; 1 hour incubation) [µM] | minimum concentration required to induce a significant mGluR1α truncation (mGluR1α; 1 hour incubation) [µM] | neurons with N-terminal fragment of mGluR1α detected in axons (myc-mGluR1α [4]) [%]
1 | N[C@H](C(=O)O)c1cc(O)cc(O)c1 [DHPG] | 54 | 29 | −1.4±0.8 | −9.7±6.8 | −24.2±6.3 | −36.7±9.6 | failed to increase | increase | 30.6±4.2 | no change |  |  |  |  |  | 
2 | CN[C@H](CC(=O)O)C(=O)O [NMDA] |  |  |  |  |  |  |  |  |  |  | 37 | 5 | 20 | ~10 | 10 | ~34
